Experimental data reported in BindingDB's records for patent US20240254093 (Heptares Therapeutics Limited, 2024).

Target: G-protein coupled receptor 35 (Homo sapiens, UniProt Q9HC97)
Assay: Human GPR35a Isoform Binding Assay
Method: Overexpression of Human GPR35a Baculovirus in HEK293f cells at a cell density of 2.5 106 cells/mL and a multiplicity of infection of 2.5 over 24 h in Pro293 (Lonza)+5% FBS, 1% Glutamax and 0.4% Pen/Strep. Cells harvested and centrifuged at 2500 RPM for 10 mins at 4 C. The supernatant was then poured off and the pellet stored at +-80 C. The pellet was defrosted and re-suspended in 15 mL of homogenising buffer (20 mM HEPES, 10 mM EDTA, pH 7.4). Then homogenised in mechanical homogeniser (VMR) for 10 seconds. The membrane was centrifuged in centrifuge tubes at 40,000 g for 15 mins at 4 C. The supernatant was poured away and re-suspended in 15 mL of homogenising buffer. Homogenised for 20 seconds. The membrane was centrifuged at 40,000 g for 45 mins at 4 C. The membrane was re-suspended in 3 mL of storage buffer (20 mM HEPES, 0.1 mM EDTA, pH 7.4) mixing well. The resulting membranes were then stored at +-80 . […] 0.1 uM FAC Lodoxamide was added in order to allow non-specific binding to be calculated. […] Plates were dried prior to 50 ul/well scintillant added, sealed and radioactivity measured using a MicroBeta analyser. IC50 values were derived from the inhibition curve and affinity constant (Ki) values were calculated using the Cheng-Prussoff equation, where; pKi=+-log 10 Ki.

G-protein coupled receptor 35, sequence (Q9HC97 whole entry, canonical isoform): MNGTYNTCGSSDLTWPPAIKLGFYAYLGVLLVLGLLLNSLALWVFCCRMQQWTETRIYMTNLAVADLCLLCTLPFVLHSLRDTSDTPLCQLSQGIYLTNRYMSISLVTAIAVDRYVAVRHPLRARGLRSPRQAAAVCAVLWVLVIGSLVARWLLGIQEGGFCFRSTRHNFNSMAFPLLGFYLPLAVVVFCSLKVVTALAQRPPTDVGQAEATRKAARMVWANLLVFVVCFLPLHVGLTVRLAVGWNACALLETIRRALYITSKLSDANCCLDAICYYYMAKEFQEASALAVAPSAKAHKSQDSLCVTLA

With `O=c1c(O)c(Nc2cccc(-c3nn[nH]n3)c2)c1=O` [US20240254093, Example 1] as the compound, how does the Ki read?
Its Ki is 9.81 nM.

For `O=c1c(O)c(Nc2cc(-c3ccccc3)cc(-c3nn[nH]n3)c2)c1=O` [US20240254093, Example 3], which Ki is on record?
The Ki was 0.35 nM.
